Test results as given in patent US9632088B2, “Methods and compositions for gamma-secretase assay” (MEMORIAL SLOAN-KETTERING CANCER CENTER, priority 2010, dated 2017).

How the values were obtained:
[1] = target: T1, wild-type PS1 γ-secretase (Homo sapiens, UniProt P49768); experiment: In vitro N1-Sb1 γ-secretase assay, membrane of N2a cells expressing wild-type PS1; type: biochemical, murine; settings: wild-type PS1; read-out: IC50 of γ-secretase inhibition (N1-Sb1 cleavage)
T1 construct: total membrane
Protocol: (§1) HeLa membrane fraction was isolated from HeLa-S3 cells (National Cell Culture Center). The cell pellet was resuspended in Buffer A (50 mM MES, 150 mM KCl, 5 mM CaCl2, 5 mM MgCl2) and lysed by passage through a French Press. N2a cells (murine neuroblastoma cells) over-expressing wild-type PS1, or mutants M146L or E280A, were obtained from Dr. Sangram Sisodia (University of Chicago, Chicago, Ill.). These cells were maintained in 50% Dulbecco's modified Eagle's medium high glucose, 50% Opti-Mem Reduced Serum Media, and 10% fetal calf serum. Cultured cells were pelleted by centrifugation and resuspended in hypotonic buffer (40 mM Tris, pH 7.4, 10 mM NaCl, 1 mM EDTA, and 0.5 mM DTT) for 20 minutes before being lysed with a dounce homogenizer. Nuclear debris from the HeLa and N2a cells were pelleted at 3000 rpm for 30 minutes. The resulting supernatants were ultracentrifuged at 100,000×g for 1 hour. The pellet that contained total cell membrane was resuspended in Buffer A. Mouse brains overexpressing knock-in wild type or M146V PS1 (gift from Dr. Hui Zheng, Amylin Pharmaceuticals, San Diego, Calif.) were homogenized with dounce homogenizer. The cell lysate was centrifuged at 3000 rpm for 30 minutes. The supernatants were ultracentrifuged at 100,000×g for 1 hour. Protein concentration was determined with the DC Protein Assay Kit according to the manufacturer's instructions (Bio-Rad, Hercules, Calif.).
(§2) An in vitro γ-secretase assay using a novel recombinant APP-derived substrate (termed “Sb4”) is disclosed in co-pending application U.S. Ser. No. 12/776,141. In the present assay based on a Notch-derived substrate, N1-Sb1 was incubated with the cell membrane fraction, prepared as described above, in the presence of 0.25% CHAPSO and 1×PIPES buffer (50 mM PIPES, pH 7.0, 150 mM KCl, 5 mM CaCl2, 5 mM MgCl2. The reaction was incubated at 37° C. for 2 hours. The Perkin Elmer AlphaScreen™ detection system was employed to assay for Notch cleavage. AlphaScreen (PerkinElmer Life and Analytical Sciences, Shelton, Conn.) is a bead based non-radioactive Amplified Luminescent Proximity Homogeneous Assay (ALPHA). When a biological interaction brings the beads together, a cascade of chemical reactions acts to produce a greatly amplified signal. Specifically, upon laser excitation, a photosensitizer in the “Donor” bead converts ambient (triplet) oxygen to the more reactive singlet state. The singlet state oxygen molecules diffuse into the solvent, and may react with a thioxene derivative in the Acceptor bead if nearby, generating chemiluminescence at 370 nm that further activates fluorophores contained in the same bead. The fluorophores subsequently emit light at 520-620 nm. In the absence of a specific biological interaction, the singlet state oxygen molecules produced by the donor bead go undetected without the close proximity of the acceptor bead. As a result no fluorescence signal at 520-620 nm is produced.
(§3) In the present system, antibody SM320, Protein A-conjugated acceptor beads, and Streptavidin-conjugated donor beads (PerkinElmer) were added to the reaction at a final concentration of 0.2 μg/ml, 2.5 μg/ml and 5 μg/ml, respectively (diagrammed in FIG. 5A). The reaction was incubated in the dark at room-temperature for 4 hours. The ALPHA signal was detected using the Envision plate reader (Perkin Elmer). The reactions were excited at 680 nm and signal was detected at 615 nm.
(§4) The effects of PS1 FAD mutations on Notch cleavage were determined using the new γ-secretase assay described in Example 2. The activities of two PS1 FAD mutations—PS1 M146L and E280A were compared against wild-type PS1 (WT), which has been previously studied (25). Total membrane was isolated from N2a cells that stably express WT, M146L, or E280A mutants. N1-Sb1 was incubated with these membranes and the resulting cN1-Sb1 was detected with SM320. […] The M146L and E280A mutants had 40% and 14% activity remaining, respectively, compared to the activity of the wild type (FIG. 7A). […]

[2] = target: T2, γ-secretase (HeLa membrane) (Homo sapiens, UniProt P49768); experiment: In vitro N1-Sb1 γ-secretase assay (ALPHA detection with SM320), HeLa membrane; type: biochemical; settings: 0.25% CHAPSO; for IC50: read-out: IC50 in inhibiting N1-Sb1 cleavage
T2 construct: host or cells: HeLa-S3 cells, total membrane fraction
Protocol: as §1
An in vitro γ-secretase assay using a novel recombinant APP-derived substrate (termed “Sb4”) is disclosed in co-pending application U.S. Ser. No. 12/776,141. In the present assay based on a Notch-derived substrate, N1-Sb1 was incubated with the cell membrane fraction, prepared as described above, in the presence of 0.25% CHAPSO and 1×PIPES buffer (50 mM PIPES, pH 7.0, 150 mM KCl, 5 mM CaCl2, 5 mM MgCl2. The reaction was incubated at 37° C. for 2 hours. The Perkin Elmer AlphaScreen™ detection system was employed to assay for Notch cleavage. AlphaScreen (PerkinElmer Life and Analytical Sciences, Shelton, Conn.) is a bead based non-radioactive Amplified Luminescent Proximity Homogeneous Assay (ALPHA). When a biological interaction brings the beads together, a cascade of chemical reactions acts to produce a greatly amplified signal. Specifically, upon laser excitation, a photosensitizer in the “Donor” bead converts ambient (triplet) oxygen to the more reactive singlet state. […] As a result no fluorescence signal at 520-620 nm is produced.
as §3, with “The reaction was incubated in the dark at room-temperature for 4 hours.” left out
HeLa membrane was incubated with N1-Sb1 substrate in the presence of 0.25% CHAPSO. The γ-secretase cleavage product (cN1-Sb1) was detected by the PerkinElmer proximity assay (ALPHA) using the SM320 antibody, Protein A-conjugated acceptor-beads (which bind SM320) and streptavidin-conjugated donor-beads (which bind biotin) (FIG. 5A). cN1-Sb1 levels in DMSO-treated assay was 10-fold higher than in the presence of the inhibitor L-685,458 (L458; structure shown below)-treated assay. […]

E280A PS1 γ-secretase = target: T3, E280A PS1 γ-secretase (Homo sapiens, UniProt P49768, E280A); experiment: In vitro N1-Sb1 γ-secretase assay, membrane of N2a cells expressing E280A PS1; type: biochemical, murine; settings: E280A PS1; read-out: IC50 of γ-secretase inhibition (N1-Sb1 cleavage)
T3 construct: total membrane
Protocol: as §1, §2, §3, §4

| SMILES | IC50 [1] | IC50 [2] | IC50 (E280A PS1 γ-secretase) | cN1-Sb1 levels in DMSO-treated assay versus inhibitor-treated assay ([2]; fold higher in DMSO) |
| --- | --- | --- | --- | --- |
| CC(NC(=O)Cc1cc(F)cc(F)c1)C(=O)NC1N=C(c2ccccc2)c2ccccc2N(C)C1=O (stereo not shown) [Compound E] | 0.78 nM | 1 nM | 0.71 nM |  |
| CC(C)C[C@H](NC(=O)[C@H](Cc1ccccc1)C[C@@H](O)[C@H](Cc1ccccc1)NC(=O)OC(C)(C)C)C(=O)N[C@@H](Cc1ccccc1)C(N)=O [L458] | 0.5 nM | 0.7 nM | 0.46 nM | 10 fold |
